Test results published in PubChem BioAssay AID330 (DTP/NCI, 2004).
Where “and” joins values, the source holds several entries; their conditions need not be identical. Equal values may be shown once. Inconclusive results and toxic doses are left out. Rule for the calls: active = survival T/C of 150% or more; inactive = T/C below 125% in these data.

Tested on: P388 leukemia ip, CD2F1 mice, survival T/C
Assay: NCI In Vivo Anticancer Drug Screen. Data for tumor model P388 Leukemia (intraperitoneal) in CD2F1 (CDF1) mice
Conditions: endpoint: median survival time, higher = longer survival
Procedure, shortened: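 Mice carrying the transplanted tumor received test compound or vehicle. Survival was recorded in each group, and the value is the treated-group measurement divided by that of the vehicle-treated control group.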

[1] = dose: 12.5 mg/kg/injection, schedule: Q01DX005 (ip), vehicle: saline with Tween-80
[2] = dose: 25.0 mg/kg/injection, schedule: Q01DX009 (ip), vehicle: saline with Tween-80
[3] = dose: 50.0 mg/kg/injection, schedule: Q01DX009 (ip), vehicle: saline with Tween-80
[4] = dose: 100.0 mg/kg/injection, schedule: Q01DX009 (ip), vehicle: saline with Tween-80
[5] = dose: 50.0 mg/kg/injection, schedule: Q01DX005 (ip), vehicle: Klucel (hydroxypropylcellulose) (HPC)
[6] = dose: 100.0 mg/kg/injection, schedule: Q01DX005 (ip), vehicle: Klucel (hydroxypropylcellulose) (HPC)
[7] = dose: 60.0 mg/kg/injection, schedule: Q01DX005 (ip), vehicle: saline with Tween-80
[8] = dose: 120.0 mg/kg/injection, schedule: Q01DX005 (ip), vehicle: saline with Tween-80
[9] = dose: 240.0 mg/kg/injection, schedule: Q01DX005 (ip), vehicle: saline with Tween-80
[10] = dose: 50.0 mg/kg/injection, schedule: Q01DX005 (ip), vehicle: saline with Tween-80

Measured: T/C

O=c1[nH]cc(NS(=O)(=O)c2ccc([N+](=O)[O-])cc2)c(=O)[nH]1
inactive: dose: 60.0 mg/kg/injection, schedule: Q01DX005 (ip), vehicle: Klucel (hydroxypropylcellulose) (HPC) 101 % of control | dose: 120.0 mg/kg/injection, schedule: Q01DX005 (ip), vehicle: Klucel (hydroxypropylcellulose) (HPC) 103 % of control | dose: 240.0 mg/kg/injection, schedule: Q01DX005 (ip), vehicle: Klucel (hydroxypropylcellulose) (HPC) 108 % of control

C=C1C(=O)OC2CC3(CO3)C3CC(OC(C)=O)C(=C)C3(O)CC12 (stereo not given)
inactive: dose: 8.0 mg/kg/injection, schedule: Q01DX009 (ip), vehicle: Klucel (hydroxypropylcellulose) (HPC) 99 % of control | dose: 16.0 mg/kg/injection, schedule: Q01DX009 (ip), vehicle: Klucel (hydroxypropylcellulose) (HPC) 116 % of control | dose: 32.0 mg/kg/injection, schedule: Q01DX009 (ip), vehicle: Klucel (hydroxypropylcellulose) (HPC) 119 % of control | dose: 64.0 mg/kg/injection, schedule: Q01DX009 (ip), vehicle: Klucel (hydroxypropylcellulose) (HPC) 114 % of control

CN1CCC23c4c5ccc(O)c4OC2C(=NN=C2CCC4(O)C6Cc7ccc(O)c8c7C4(CCN6C)C2O8)CCC3(O)C1C5 (stereo not given)
inactive: [1] 96 % of control | dose: 25.0 mg/kg/injection, schedule: Q01DX005 (ip), vehicle: saline with Tween-80 90 % of control

CC(N)C(=O)NCC(=O)NCC(=O)O (stereo not given)
inactive: dose: 50.0 mg/kg/injection, schedule: Q01DX005 (ip), vehicle: saline 100 % of control | dose: 100.0 mg/kg/injection, schedule: Q01DX005 (ip), vehicle: saline 106 % of control | dose: 200.0 mg/kg/injection, schedule: Q01DX005 (ip), vehicle: saline 99 % of control

C(=N\N1CCCCCC1)/c1ccc2c(c1)OCO2
inactive: [2] 90 % of control | [3] 95 % of control | [4] 90 % of control

CCOC(=O)/C=C/C(=O)N1CCN(C(=O)/C=C/C(=O)OCC)C(C)C1 (stereo not given)
inactive: [5] 113 % of control | dose: 90.0 mg/kg/injection, schedule: Q01DX005 (ip), vehicle: Klucel (hydroxypropylcellulose) (HPC) 108 % of control | [6] 116 % of control | dose: 133.0 mg/kg/injection, schedule: Q01DX005 (ip), vehicle: Klucel (hydroxypropylcellulose) (HPC) 112 % of control

O=C(CC(=O)c1ccc(Cl)c(Cl)c1)Cc1ccc2ccccc2n1
inactive: [7] 90 % of control | [8] 97 % of control | [9] 88 % of control

O=C(O)CC1(C(=O)O)CC2C=CC1C2 (stereo not given)
inactive: [7] 104 % of control | [8] 91 % of control | [9] 91 % of control

CCn1c(S)c(N=NC(=S)c2ccc3ccccc3n2)c2ccccc21
inactive: dose: 50.0 mg/kg/injection, schedule: Q04DX003 (ip), vehicle: saline 98 % of control | dose: 100.0 mg/kg/injection, schedule: Q04DX003 (ip), vehicle: saline 96 % of control | dose: 200.0 mg/kg/injection, schedule: Q04DX003 (ip), vehicle: saline 103 % of control

CC(=O)OC1CC2CCC1(C)C2(C)C (stereo not given)
inactive: [3] 109 % of control | dose: 50.0 mg/kg/injection, schedule: Q04DX003 (ip), vehicle: saline with Tween-80 105 % of control | [4] 104 % of control | dose: 100.0 mg/kg/injection, schedule: Q04DX003 (ip), vehicle: saline with Tween-80 100 % of control | dose: 200.0 mg/kg/injection, schedule: Q04DX003 (ip), vehicle: saline with Tween-80 100 % of control

CC(C)CCC[C@@H](C)[C@H]1CC[C@H]2[C@@H]3CC[C@H]4C[C@@H](N)CC[C@]4(C)[C@H]3CC[C@]12C
inactive: dose: 6.25 mg/kg/injection, schedule: Q01DX005 (ip), vehicle: Klucel (hydroxypropylcellulose) (HPC) 98 % of control | dose: 12.5 mg/kg/injection, schedule: Q01DX005 (ip), vehicle: Klucel (hydroxypropylcellulose) (HPC) 97 % of control | dose: 25.0 mg/kg/injection, schedule: Q01DX005 (ip), vehicle: Klucel (hydroxypropylcellulose) (HPC) 95 % of control | [5] 112 % of control | [6] 109 % of control

CCS(=O)(=O)/C=C\S(=O)(=O)CC
inactive: dose: 1.56 mg/kg/injection, schedule: Q04DX003 (ip), vehicle: Klucel (hydroxypropylcellulose) (HPC) 100 % of control | dose: 3.12 mg/kg/injection, schedule: Q04DX003 (ip), vehicle: Klucel (hydroxypropylcellulose) (HPC) 98 % of control | dose: 6.25 mg/kg/injection, schedule: Q04DX003 (ip), vehicle: Klucel (hydroxypropylcellulose) (HPC) 100 % of control

CCOC(=O)c1ccc(N)[n+](C2OC(COC(=O)c3ccccc3)C(OC(=O)c3ccccc3)C2OC(=O)c2ccccc2)c1 (stereo not given)
inactive: [10] 92 % of control | dose: 100.0 mg/kg/injection, schedule: Q01DX005 (ip), vehicle: saline with Tween-80 107 % of control | dose: 200.0 mg/kg/injection, schedule: Q01DX005 (ip), vehicle: saline with Tween-80 112 % of control

CCOC(=O)C(C(=O)OCC)=C1C(=O)Nc2ccccc21
inactive: dose: 100.0 mg/kg/injection, schedule: Q04DX002 (ip), vehicle: Klucel (hydroxypropylcellulose) (HPC) 106 % of control | dose: 200.0 mg/kg/injection, schedule: Q04DX002 (ip), vehicle: Klucel (hydroxypropylcellulose) (HPC) 106 % of control | dose: 400.0 mg/kg/injection, schedule: Q04DX002 (ip), vehicle: Klucel (hydroxypropylcellulose) (HPC) 109 % of control

CCOC(=O)/C=C(/C)Nc1ccc2c(c1)OCO2
inactive: [5] 103 % of control | [6] 110 % of control | dose: 200.0 mg/kg/injection, schedule: Q01DX005 (ip), vehicle: Klucel (hydroxypropylcellulose) (HPC) 111 % of control

COC(=O)c1ccc(SCCC(=O)CSc2ccc(C(=O)OC)cc2)cc1
inactive: dose: 50.0 mg/kg/injection, schedule: Q01DX009 (ip), vehicle: Klucel (hydroxypropylcellulose) (HPC) 98 % of control | dose: 100.0 mg/kg/injection, schedule: Q01DX009 (ip), vehicle: Klucel (hydroxypropylcellulose) (HPC) 94 % of control | dose: 200.0 mg/kg/injection, schedule: Q01DX009 (ip), vehicle: Klucel (hydroxypropylcellulose) (HPC) 94 % of control

O=C1c2ccccc2CC2CCCCC12 (stereo not given)
inactive: [3] 103 % of control | [4] 102 % of control | dose: 200.0 mg/kg/injection, schedule: Q01DX009 (ip), vehicle: saline with Tween-80 108 % of control

N#CN(Cc1ccccc1)Cc1ccccc1.[Br][Sn]([c]1ccccc1)([c]1ccccc1)[c]1ccccc1
inactive: dose: 3.12 mg/kg/injection, schedule: Q01DX005 (ip), vehicle: saline with Tween-80 100 % of control | dose: 6.25 mg/kg/injection, schedule: Q01DX005 (ip), vehicle: saline with Tween-80 100 % of control | [1] 91 % of control | [10] 114 % of control

COc1ccc(-n2c(N)c(C#N)c3c(c2=S)CCCC3)cc1
inactive: dose: 50.0 mg/kg/injection, schedule: Q01DX005 (ip), vehicle: Klucel + Tween-80 100 % of control | dose: 100.0 mg/kg/injection, schedule: Q01DX005 (ip), vehicle: Klucel + Tween-80 104 % of control | dose: 200.0 mg/kg/injection, schedule: Q01DX005 (ip), vehicle: Klucel + Tween-80 95 % of control

Cc1ccc2c(c1)N=C(Nc1ccccc1)N=S2(C)=O (stereo not given)
inactive: dose: 12.5 mg/kg/injection, schedule: Q01DX009 (ip), vehicle: saline with Tween-80 93 % of control | [2] 92 % of control | [3] 117 % of control and 119 % of control | [4] 104 % of control

O=[N+]([O-])c1oc2ccc3ccccc3c2c1CCO
inactive: [7] 97 % of control | [8] 110 % of control | [9] 117 % of control

CC[n+]1c(-c2ccccc2)c2cc(NCCCN)ccc2c2ccc(N)cc21
inactive: dose: 1.25 mg/kg/injection, schedule: Q01DX009 (ip), vehicle: water 97 % of control | dose: 2.5 mg/kg/injection, schedule: Q01DX009 (ip), vehicle: water 116 % of control | dose: 5.0 mg/kg/injection, schedule: Q01DX009 (ip), vehicle: water 103 % of control | dose: 10.0 mg/kg/injection, schedule: Q01DX009 (ip), vehicle: water 115 % of control | dose: 20.0 mg/kg/injection, schedule: Q01DX009 (ip), vehicle: water 116 % of control
